# Entries after “also recorded” stand apart in the source; their conditions may differ.
# Columns and labels:
# acetylated α-tubulin = test: Acetylated α-tubulin in F11-derived neurons (immunofluorescence, western blotting); assay type: cell-based; conditions: 24 h
# hERG channel = molecular target: T1, hERG channel (Homo sapiens, UniProt Q12809); test: hERG inhibition, automated patch clamp (QPatch 16) in CHO-K1 cells; assay type: cell-based; conditions: tested at 0.01-1 mM
# T1 construct: host or cells: CHO-K1
# Protocol: mM Tris-HCl (pH 8.0), 1.98 mM phenol and 1.02 µM hematine. Thereafter, the reaction was initiated by adding 4 µM (COX1) or 2 µM (COX2) of arachidonic acid and the mixture was incubated for 5 min at RT. For basal control measurements, arachidonic acid was omitted from the reaction mixture. Following incubation, t he reaction was stopped by the addition of 1 M HCl then 1 M Tris/HCl (pH 8.0) followed by cooling to 4°C.
# The fluorescence acceptor (d2 labeled PGE2) and the fluorescence donor (anti -PGE2 antibody labeled with europium Cryptate) were then added. After 120 min, the fluorescence transfer corresponding to the amount of residual PGE2 was measured at λex=337 nm, λem=620 nm and λem=665 nm using a microplate reader (Envision, Perkin Elmer). The enzyme activity was determined by dividing the signal measured at 665 nm by that measured at 620 nm (ratio). The results were expressed as a percent age inhibition of the control enzyme activity. The standard inhibitory reference compound was Diclofenac, which was tested in each experiment at several concentrations to obtain an inhibition curve from which its IC50 value was calculated. […]
# The human ether-a-go-go related gene (hERG) inhibition assay was performed by Eurofins Panlabs Inc, USA. […] Single cell ionic currents were measured in the automated patch clamp configuration at room temperature by using QPatch 16 in strument. […]
# [1] = Aqueous solubility (SiriusT3); assay type: physicochemical
# Protocol: vehicle were seeded in the upper compartment. The two compartments were separated by 5 µm pre-size polycarbonate filter (polyvinylpyrrolidone-free for PMN chemotaxis). The chamber was […]
# Physicochemical characterization […]
# and a turbidity-sensing device. […]
# water/HBSS to a final concentration of 10 μM. Cell membrane homogenates (48 μg protein) were […]
# p-ERK1/2 = p-ERK1/2 western blotting in F11-derived neurons; assay type: cell-based; conditions: DF2726A 1 µM + oxaliplatin 20 µM, 24 h
# Protocol: Following neuronal differentiation, neurons were treated for 24 h with DF2726A (1 μM final concentration), oxaliplatin (Sigma-Aldrich; 20 µM final concentration), or the combination of the two molecules.
# Control and treated cells were collected and lysed in ice-cold RIPA buffer (PBS pH 7.4 containing 0.5% sodium deoxycolate, 1% Igepal, 0.1% SDS, 5 mM EDTA, 1% protease and phosphatase inhibitor cocktails; Sigma-Aldrich) as described in[22],[33]. Protein lysates (30 μg) were separated on 8–12% SDS-polyacrilamide gel and electroblotted onto polyvinyldifluoride membrane (PVDF; Sigma-Aldrich). Nonspecific binding sites were blocked by 5% non-fat dry milk (Bio-Rad Laboratories, Hercules, CA, USA) in Tris buffered saline (TBS: 20 mM Tris- HCl, pH 7.4, containing 150 mM NaCl) for 30 min at RT. […] The relative densities of immunoreactive bands were determined and normalized HRP-conjugated β-actin, using ImageJ software. […]
# TRPM8 = test: Western blot of DRG of oxaliplatin rats, TRPM8; assay type: in vivo, male Wistar rats; conditions: 30 mg/kg os
# Protocol: Animals were sacrificed and dorsal root ganglia (DRG) (L4-L6) were removed and stored at […]. They were homogenized on ice-cold lysis buffer [20 mM Tris–HCl (pH 7.5), 10 mM NaF, 150 mM NaCl, 1% Nonidet P-40, 1 mM phenylmethylsulfonyl fluoride, 1 mM Na3VO4, leupeptin and trypsin inhibitor 10 μg/mL; 20 µl/sample, as previously described.
# After 1 h, tissue lysates were obtained by centrifugation at 20,000 g for 15 min at 4 °C. Protein concentrations were estimated by the Bio-Rad protein assay using bovine serum albumin as standard.
# DRG lysate proteins (30 μg) were dissolved in Laemmli sample buffer, boiled for 5 min, and separated on SDS-polyacrylamide gel elctrophoresis and transferred onto nitrocellulose membrane (240 mA for 40 min at room temperature). […] The protein bands were scanned and densitometrically analyzed with a model GS-700 imaging densitometer (Bio-Rad Laboratories, Milan, Italy). […]
# [2] = tested on: IL-8-induced hPMN chemotaxis; conditions: read-out: IC50 (CXCL8 / IL-8-induced hPMN chemotaxis); hPMN pre-incubated 15 min at 37°C, migration 45 min
# Protocol: Chemokines were from PeproTech (London, UK). Chemicals and cell culture reagents were from Sigma Aldrich (Saint Louis, MI, USA).
# Cell isolation and culture
# Human mononuclear cells and PMNs were obtained from buffy coats of heparinized peripheral
# blood from adult healthy volunteers courtesy of Centro Trasfusionale, Ospedale S. Salvatore,
# L’Aquila, Italy. Ethical clearance was obtained to perform these experiments. Human PMNs were
# prepared to 99% purity by dextran sedimentation followed by hypotonic lysis of contaminating red
# blood cells as previously described 1. PMNs were washed once with saline and then resuspended at
# 1.5 x 10^6/ml in HBSS for migration assay. Cell viability, as measured by Trypan Blue dye exclusion, was greater than 98%.
# Migration of human PMNs was evaluated by microchamber technique in a 48-well
# microchemotaxis chamber, as previously described 2. Briefly, 25 µl of control medium (PBS for
# monocytes and HBSS for PMNs) or chemoattractant (CXCL1, CXCL8) solutions were seeded in
# the lower compartment of the chemotaxis chamber. Fifty µl of cell suspension (1.5 x 10^6/ml) pre-
# immersion fields at high magnification (100X; Zeiss microscope) were counted after sample
# T1 sequence (Q12809 whole entry): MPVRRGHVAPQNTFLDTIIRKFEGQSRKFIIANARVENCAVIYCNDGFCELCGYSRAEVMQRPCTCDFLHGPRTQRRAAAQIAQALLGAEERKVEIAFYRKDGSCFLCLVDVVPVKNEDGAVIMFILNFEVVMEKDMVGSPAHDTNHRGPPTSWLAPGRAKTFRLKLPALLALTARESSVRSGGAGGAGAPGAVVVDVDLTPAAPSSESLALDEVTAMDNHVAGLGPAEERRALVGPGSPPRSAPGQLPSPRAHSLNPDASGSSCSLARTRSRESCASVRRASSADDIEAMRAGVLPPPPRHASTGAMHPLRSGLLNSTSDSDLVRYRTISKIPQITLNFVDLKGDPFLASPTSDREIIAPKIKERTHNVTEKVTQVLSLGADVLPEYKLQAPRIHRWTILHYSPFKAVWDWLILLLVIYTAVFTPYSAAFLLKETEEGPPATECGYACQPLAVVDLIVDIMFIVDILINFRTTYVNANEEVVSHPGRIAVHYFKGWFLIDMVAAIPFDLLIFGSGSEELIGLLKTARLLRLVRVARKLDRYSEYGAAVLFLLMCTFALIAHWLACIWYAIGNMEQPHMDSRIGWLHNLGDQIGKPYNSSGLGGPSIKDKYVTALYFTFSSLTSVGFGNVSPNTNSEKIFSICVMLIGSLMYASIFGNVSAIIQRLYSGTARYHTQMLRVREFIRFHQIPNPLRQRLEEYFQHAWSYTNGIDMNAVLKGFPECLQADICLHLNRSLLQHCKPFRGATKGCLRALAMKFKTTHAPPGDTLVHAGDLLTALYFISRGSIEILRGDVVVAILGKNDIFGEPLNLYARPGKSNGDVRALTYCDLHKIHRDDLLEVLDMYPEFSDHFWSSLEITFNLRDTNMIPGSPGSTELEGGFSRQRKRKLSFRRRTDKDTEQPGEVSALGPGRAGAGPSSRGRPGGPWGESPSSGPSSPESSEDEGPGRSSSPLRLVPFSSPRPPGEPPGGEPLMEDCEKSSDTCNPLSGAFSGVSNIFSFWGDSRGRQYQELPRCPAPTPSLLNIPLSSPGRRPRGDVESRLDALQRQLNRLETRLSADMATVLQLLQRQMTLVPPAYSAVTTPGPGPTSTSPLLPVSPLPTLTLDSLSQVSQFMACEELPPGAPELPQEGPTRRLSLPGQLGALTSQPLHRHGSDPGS
smiles,measurement,setting,value
CC(C)(C(=O)O)c1ccc(Nc2nc(C(F)(F)F)cs2)cc1 [DF2726A],Acetylated α-tubulin in neurons treated with DF2726A alone,"acetylated α-tubulin; 1 µM, immunofluorescence",moderately present
same,"Acetylated α-tubulin in oxaliplatin-treated neurons, combination with DF2726A",acetylated α-tubulin; DF2726A 1 µM + oxaliplatin 20 µM,counteracts chemotherapy-mediated effects; also recorded: comparable to that of control cells
same,"Acetylated α-tubulin in paclitaxel-treated neurons, combination with DF2726A",acetylated α-tubulin; DF2726A + paclitaxel 10 nM,The same effect was observed; also recorded: comparable to that of control cells
same,IC50,hERG channel,> 1000 µM
same,Acqueous solubility,[1],>30 mg/mL
same,"p-ERK1/2 protein levels, oxaliplatin-treated neurons",p-ERK1/2,comparable to those of control cells
same,TRPM8 expression in DRG of oxaliplatin rats,TRPM8,significant reduction in the expression
same,IC50,[2],0.01 ± 0.005 µM

# — article PMC6692352, “DF2726A, a new IL-8 signalling inhibitor, is able to counteract chemotherapy-induced neuropathic pain” (Scientific Reports, 2019)
